The record followed here is patent publication US20240294508A1, “RIP1 MODULATORS INCLUDING AZETIDINE CYCLIC UREAS, PREPARATIONS, AND USES THEREOF” (SIRONAX LTD., priority 2021, published 2024).

SMILES strings stand for the structures.

In this assay the test system is HT-29 cells. The assay can be described thus: HT29 cells 0FBS assay in vitro: TNF-α/SMAC mimetic/zVAD-FMK induced necroptosis, CellTiter-Glo cell viability (RIP1 inhibitory activity). The class given is cell-based. The following applies: Homo sapiens, FBS free medium, TNF-α (10 ng/ml) + SMAC mimetic (6 uM) + zVAD-FMK (10 μM), 20 hours, geometric mean EC50. In a few lines: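 HT-29 cells (5,000/well, overnight) switched to FBS-free McCOY's 5A with TNF-α (10 ng/ml), SMAC mimetic (6 uM) and zVAD-FMK (10 μM) to drive necroptosis, plus compound, for 20 hours at 37° C. Viability read by CellTiter-Glo luminescence; geometric mean EC50 from 10-point duplicate dose-response.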
A general note: In ATP-based viability assays light output follows the ATP content of the culture.
By EC50 is commonly meant the concentration giving half of the maximal effect. For `Cn1ncc(F)c1-c1cc(OC2CN(C(=O)N3N=CC[C@H]3c3cncc(F)c3)C2)c(F)cn1` [Compound 45, (S)-(3-((5-fluoro-2-(4-fluoro-1-methyl-1H-pyrazol-5-yl)pyridin-4-yl)oxy)azetidin-1-yl)(5-(5-fluoropyridin-3-yl)-4,5-dihydro-1H-pyrazol-1-yl) methanone], the half-maximal effective concentration (EC50) was 0.1 to 100 nM. Take `Cc1c(Cl)nn(C)c1-c1cc(OC2CN(C(=O)N3N=CC[C@H]3c3cc(F)cc(C#N)c3)C2)c(F)cn1` [Compound 50, (S)-3-(1-(3-((2-(3-chloro-1,4-dimethyl-1H-pyrazol-5-yl)-5-fluoropyridin-4-yl)oxy)azetidine-1-carbonyl)-4,5-dihydro-1H-pyrazol-5-yl)-5-fluoro benzonitrile]: the EC50 was in the range of 0.1 to 100 nM. With `Cn1cccc(-c2cc(OC3CN(C(=O)N4N=CC[C@H]4c4cc(F)cc(F)c4)C3)c(F)cn2)c1=O` (stereo in doubt) [Compound 169, 4-((1-(5-(3,5-difluorophenyl)-4,5-dihydro-1H-pyrazole-1-carbonyl)azetidin-3-yl)oxy)-5-fluoro-1′-methyl-[2,3′-bipyridin]-2′(1′H)-one], the EC50 fell in the range of 100 to 1000 nM. Consider `Cn1ncc(C(N)=O)c1-c1cc(OC2CN(C(=O)N3N=CC[C@H]3c3cc(F)cc(C#N)c3)C2)c(F)cn1` [Compound 10, (S)-5-(4-((1-(5-(3-cyano-5-fluorophenyl)-4,5-dihydro-1H-pyrazole-1-carbonyl)azetidin-3-yl)oxy)-5-fluoropyridin-2-yl)-1-methyl-1H-pyrazole-4-carboxamide], for which the EC50 lay in the range of 100 to 1000 nM. In the case of `Cn1ncc(Cl)c1-c1ncc(F)c(OC2CN(C(=O)N3N=CC[C@H]3c3cncc(F)c3)C2)n1` [Compound 32, (S)-(3-((2-(4-chloro-1-methyl-1H-pyrazol-5-yl)-5-fluoropyrimidin-4-yl)oxy)azetidin-1-yl)(5-(5-fluoropyridin-3-yl)-4,5-dihydro-1H-pyrazol-1-yl)methanone] it was 0.1 to 100 nM; in that of `Cc1cnn(C)c1-c1cc(OC2CN(C(=O)N3N=CC[C@H]3c3cc(F)cc(C#N)c3)C2)c(F)cn1` [Compound 11, (S)-3-(1-(3-((2-(1,4-dimethyl-1H-pyrazol-5-yl)-5-fluoropyridin-4-yl)oxy)azetidine-1-carbonyl)-4,5-dihydro-1H-pyrazol-5-yl)-5-fluorobenzonitrile], 0.1 to 100 nM; in that of `Cc1nc(C(N)=O)c(C)n1-c1cc(OC2CN(C(=O)N3N=CC[C@H]3c3cncc(F)c3)C2)c(F)cn1` [Compound 69, (S)-1-(5-fluoro-4-((1-(5-(5-fluoropyridin-3-yl)-4,5-dihydro-1H-pyrazole-1-carbonyl)azetidin-3-yl)oxy)pyridin-2-yl)-2,5-dimethyl-1H-imidazole-4-carboxamide], 100 to 1000 nM. Regarding `Cc1cnn(C)c1-c1ccc(F)c(OC2CN(C(=O)N3N=CC[C@H]3c3cc(F)cc(C#N)c3)C2)n1` [Compound 53, (S)-3-(1-(3-((6-(1,4-dimethyl-1H-pyrazol-5-yl)-3-fluoropyridin-2-yl)oxy)azetidine-1-carbonyl)-4,5-dihydro-1H-pyrazol-5-yl)-5-fluorobenzonitrile], the EC50 lay in the range of 0.1 to 100 nM.

For `CCn1nccc1-c1cc(OC2CN(C(=O)N3N=CC[C@H]3c3cc(F)cc(C#N)c3)C2)c(F)cn1` [Compound 12, (S)-3-(1-(3-((2-(1-ethyl-1H-pyrazol-5-yl)-5-fluoropyridin-4-yl)oxy)azetidine-1-carbonyl)-4,5-dihydro-1H-pyrazol-5-yl)-5-fluorobenzonitrile], the EC50 lay within 0.1 to 100 nM. In the case of `Cc1cnn(C)c1-c1cc(OC2CN(C(=O)N3N=CCC3c3nc(C)c(C)s3)C2)c(F)cn1` (centres unmarked) [Compound 144, (3-((2-(1,4-dimethyl-1H-pyrazol-5-yl)-5-fluoropyridin-4-yl)oxy)azetidin-1-yl)(5-(4,5-dimethylthiazol-2-yl)-4,5-dihydro-1H-pyrazol-1-yl)methanone], the EC50 was in the range of 100 to 1000 nM. Regarding `CNC(=O)c1c(C)nn(-c2cc(OC3CN(C(=O)N4N=CC[C@H]4c4cncc(C#N)c4)C3)c(F)cn2)c1C` [Compound 81, (S)-1-(4-((1-(5-(5-cyanopyridin-3-yl)-4,5-dihydro-1H-pyrazole-1-carbonyl)azetidin-3-yl)oxy)-5-fluoropyridin-2-yl)-N,3,5-trimethyl-1H-pyrazole-4-carboxamide], the EC50 fell in the range of 100 to 1000 nM. For `Cc1cnn(C)c1-c1cc(OC2CN(C(=O)N3N=CCC3c3cncs3)C2)c(F)cn1` (centres unmarked) [Compound 91, (3-((2-(1,4-dimethyl-1H-pyrazol-5-yl)-5-fluoropyridin-4-yl)oxy)azetidin-1-yl)(5-(thiazol-5-yl)-4,5-dihydro-1H-pyrazol-1-yl)methanone], the EC50 lay in the range of 0.1 to 100 nM.

As for `Cc1cnn(C)c1-c1cc(OC2CN(C(=O)N3N=CCC3c3cc(F)cc(F)c3F)C2)c(F)cn1` (centres unmarked) [Compound 116, (3-((2-(1,4-dimethyl-1H-pyrazol-5-yl)-5-fluoropyridin-4-yl)oxy)azetidin-1-yl)(5-(2,3,5-trifluorophenyl)-4,5-dihydro-1H-pyrazol-1-yl)methanone], the half-maximal effective concentration (EC50) lay in the range of 0.1 to 100 nM. Take `Cc1c(-c2cc(OC3CN(C(=O)N4N=CCC4c4cc(F)cc(F)c4F)C3)c(F)cn2)nn(C)c1C(N)=O` (centres unmarked) [Compound 110, 3-(5-fluoro-4-((1-(5-(2,3,5-trifluorophenyl)-4,5-dihydro-1H-pyrazole-1-carbonyl)azetidin-3-yl)oxy)pyridin-2-yl)-1,4-dimethyl-1H-pyrazole-5-carboxamide]: the EC50 was in the range of 0.1 to 100 nM. In the case of `Cn1ncc(Cl)c1-c1ncc(F)c(OC2CN(C(=O)N3N=CC[C@H]3c3cc(F)cc(C#N)c3)C2)n1` [Compound 16] it was 0.1 to 100 nM; in that of `Cc1c(N)nn(C)c1-c1cc(OC2CN(C(=O)N3N=CC[C@H]3c3cncc(F)c3)C2)c(F)cn1` [Compound 61, (S)-(3-((2-(3-amino-1,4-dimethyl-1H-pyrazol-5-yl)-5-fluoropyridin-4-yl)oxy)azetidin-1-yl)(5-(5-fluoropyridin-3-yl)-4,5-dihydro-1H-pyrazol-1-yl)methanone], 0.1 to 100 nM.

As for `Cn1ncc(F)c1-c1cc(OC2CN(C(=O)N3N=CC[C@H]3c3cc(F)cc(C#N)c3)C2)c(F)cn1` [Compound 5, (S)-3-fluoro-5-(1-(3-((5-fluoro-2-(4-fluoro-1-methyl-1H-pyrazol-5-yl)pyridin-4-yl)oxy)azetidine-1-carbonyl)-4,5-dihydro-1H-pyrazol-5-yl)benzonitrile], the EC50 lay in the range of 0.1 to 100 nM. Regarding `Cn1ccnc1-c1ccc(F)c(OC2CN(C(=O)N3N=CC[C@H]3c3cc(F)cc(C#N)c3)C2)n1` [Compound 13, (S)-3-fluoro-5-(1-(3-((3-fluoro-6-(1-methyl-1H-imidazol-2-yl)pyridin-2-yl)oxy)azetidine-1-carbonyl)-4,5-dihydro-1H-pyrazol-5-yl)benzonitrile], the EC50 is 0.1 to 100 nM. Consider `Cc1nn(-c2cc(OC3CN(C(=O)N4N=CC[C@H]4c4cc(F)cc(F)c4F)C3)c(F)cn2)c(C)c1S(N)(=O)=O` [Compound 124, (S)-1-(5-fluoro-4-((1-(5-(2,3,5-trifluorophenyl)-4,5-dihydro-1H-pyrazole-1-carbonyl)azetidin-3-yl)oxy)pyridin-2-yl)-3,5-dimethyl-1H-pyrazole-4-sulfonamide], for which the EC50 lay in the range of 0.1 to 100 nM.

Turning to `Cc1cnn(C)c1-c1cc(OC2CN(C(=O)N3N=CCC3c3ccn(C)c3)C2)c(F)cn1` (centres unmarked) [Compound 145, (3-((2-(1,4-dimethyl-1H-pyrazol-5-yl)-5-fluoropyridin-4-yl)oxy)azetidin-1-yl)(5-(1-methyl-1H-pyrrol-3-yl)-4,5-dihydro-1H-pyrazol-1-yl)methanone], the EC50 was in the range of 0.1 to 100 nM. For `Cc1cnn(C)c1-c1ncc(F)c(OC2CN(C(=O)N3N=CC[C@H]3c3cc(F)cc(C#N)c3)C2)n1` [Compound 25, (S)-3-(1-(3-((2-(1,4-dimethyl-1H-pyrazol-5-yl)-5-fluoropyrimidin-4-yl)oxy)azetidine-1-carbonyl)-4,5-dihydro-1H-pyrazol-5-yl)-5-fluorobenzonitrile], the EC50 is 0.1 to 100 nM.

`Cc1cc(F)cc([C@H]2CC=NN2C(=O)N2CC(Oc3cc(-n4nc(C)c(C(=O)O)c4C)ncc3F)C2)c1` [Compound 143, (R) 1-(5-fluoro-4-((1-(5-(3-fluoro-5-methylphenyl)-4,5-dihydro-1H-pyrazole-1-carbonyl)azetidin-3-yl)oxy)pyridin-2-yl)-3,5-dimethyl-1H-pyrazole-4-carboxylic acid]: the EC50 was 100 to 1000 nM. As for `Cc1nn(-c2cc(OC3CN(C(=O)N4N=CC[C@H]4c4cc(F)cc(C#N)c4)C3)c(F)cn2)c(C)c1C(=O)NC1CC1` [Compound 86, (S)-1-(4-((1-(5-(3-cyano-5-fluorophenyl)-4,5-dihydro-1H-pyrazole-1-carbonyl)azetidin-3-yl)oxy)-5-fluoropyridin-2-yl)-N-cyclopropyl-3,5-dimethyl-1H-pyrazole-4-carboxamide], the EC50 was in the range of 0.1 to 100 nM. In the case of `Cc1nn(CC(N)=O)c(C)c1-c1cc(OC2CN(C(=O)N3N=CC[C@H]3c3cc(F)cc(C#N)c3)C2)c(F)cn1` [Compound 21, (S)-2-(4-(4-((1-(5-(3-cyano-5-fluorophenyl)-4,5-dihydro-1H-pyrazole-1-carbonyl)azetidin-3-yl)oxy)-5-fluoropyridin-2-yl)-3,5-dimethyl-1H-pyrazol-1-yl)acetamide] it was 0.1 to 100 nM; in that of `Cc1c(N)nn(C)c1-c1cc(OC2CN(C(=O)N3N=CCC3c3cc(F)cc(F)c3F)C2)c(F)cn1` (centres unmarked) [Compound 115, (3-((2-(3-amino-1,4-dimethyl-1H-pyrazol-5-yl)-5-fluoropyridin-4-yl)oxy)azetidin-1-yl)(5-(2,3,5-trifluorophenyl)-4,5-dihydro-1H-pyrazol-1-yl) methanone], 0.1 to 100 nM. Regarding `Cc1nn(-c2cc(OC3CN(C(=O)N4N=CC[C@@H]4c4cc(F)cc(F)c4F)C3)c(F)cn2)c(C)c1S(N)(=O)=O` [Compound 125, (R)-1-(5-fluoro-4-((1-(5-(2,3,5-trifluorophenyl)-4,5-dihydro-1H-pyrazole-1-carbonyl)azetidin-3-yl)oxy)pyridin-2-yl)-3,5-dimethyl-1H-pyrazole-4-sulfonamide], the EC50 fell in the range of 100 to 1000 nM.
